Test results from US4526890A, “3,6,7,8-Substituted-s-triazolo[4,3-b]pyridazines as bronchodilators” (The Dow Chemical Company, priority 1981, dated 1985).
Structures can show the parent of a compound that is named as a salt.

What was measured:
[1] = tested on: histamine-induced bronchoconstriction; experiment: Bronchodilator activity in the Konzett-Rossler guinea pig preparation (histamine-induced bronchoconstriction); type: in vivo; set-up: key to Histamine Blockade: % blockade = 100 − (post-dose response / mean of 3 prior) × 100; details: for Histamine Blockade: table 7, intravenous, 3 mg/kg except as otherwise indicated, aminophylline 10 mg/kg; for percent blockade of histamine / percent of aminophylline activity: 3 mg/kg intravenously; for percent blockade of histamine: 2 minutes prior to histamine; for percent of aminophylline activity: aminophylline 10 mg/kg for comparison, histamine agonist
Method: Bronchodilator activity of representative triazolopyridazine compounds of the invention is examined in the Konzett-Rossler quinea pig preparation according to accepted procedures. See Knozett and Rossler; Arch. f. Exp. Path. u. Pharmakol. […] Int. Pharmacodyn. […] In this procedure an anesthetized guinea pig is artificially respired with a fixed volume of air. The volume of air is selected to slightly exceed the capacity of the guinea pig's lungs, and the excess air or "overflow" is measured. Test compounds are evaluated by administering a test compound intravenously 2 minutes prior to administration of an agonist compound (histamine, serotonin or acetylcholine) following 3 previous agonist doses resulting in relatively uniform (±10 percent) bronchoconstriction. […] This is calculated by dividing the "overflow" agonist response measured after administration of the test compound by the average of the 3 preceding agonist responses, multiplying by 100 and subtracting this value from 100 percent.

[2] = 30 minute LD50 (acute toxicity without sound); details: mouse, in vivo, ip
Method: (§1) The interaction of sound with the convulsive threshold of drugs is a known phenomenon which can be used to evaluate such side effects. […] In a procedure for pharmacological evaluation, the lowering of the convulsive threshold, or the lowering of the LD50, by sound can be studied in mice.
(§2) In the test operations, mice are administered a test compound by intraperitoneal injection at various dosages, and the number of mice showing tonic convulsions and the number of fatalities occurring within 30 minutes is recorded.

[3] = Audiogenic convulsive side effects (sound challenge: tonic convulsions and fatalities); details: mouse, ip
Method: as §1, §2
The sound exposure is carried out by placing the mice in a sound insulated cage with a bell which emits 120 decibels of sound, and activating the bell for two minutes. The number of tonic convulsions and fatalities are then recorded to determine the ED50 and LD50 in the presence of the sound challenge.

[4] = tested on: histamine aerosol; experiment: Histamine aerosol exposure (collapse time); type: in vivo, guinea pigs; details: challenged two hours after intraperitoneal injection, collapse time > mean + two SD of controls; for ED50: Cavia porcellus, ip, 2 h
Method: In another procedure, test compounds were administered to guinea pigs by intraperitoneal injection and the guinea pigs were challenged two hours later by exposure to a histamine aerosol. Untreated animals collapse when exposed to the histamine aerosol. […] The ED50 's of representative compounds are set out in the following table.

[5] = tested on: mice; details: U.S. Pat. No. 4,136,182; in words; cited from earlier work

SMILES | Histamine Blockade [1] | LD50 at 0.5 h [2] [mg/kg] | LD50 ([3]; in vivo) [mg/kg] | TD50 [3] [mg/kg] | ED50 [4] [mg/kg] | further results
c1nnc2c3c(c(N4CCCCC4)nn12)CCCC3 [Example 25, 6-piperidino-7,8-tetramethylene-s-triazolo[4,3-b]pyridazine] | 72 | 298 | 298 | 283 | – | –
Cc1cc2nncn2nc1N1CCCC1 [Example 3, 7-methyl-6-pyrrolidino-s-triazolo[4,3-b]pyridazine] | 43 | 272 | 176 | 141 | – | –
c1nnc2c3c(c(N4CCCC4)nn12)CCCC3 [Example 24, 6-(1-pyrrolidinyl)-7,8,9,10-tetrahydro(1,2,4)triazolo[3,4-a]phthalazine] | 86 | 191 | 170 | 150 | – | percent blockade of histamine [1]: 100%; percent of aminophylline activity [1]: 105%
CN1CCN(c2nn3cnnc3c3c2CCCC3)CC1 [Example 27, 6-(4-methyl-1-piperazinyl)-7,8-tetramethylene(1,2,4)triazolo[4,3-b]pyridazine] | 91 | 147 | 134 | 134 | – | –
Cc1nnc2c3c(c(N4CCOCC4)nn12)C1CCC3C1 (stereo not shown) [Example 6, 7,8,9,10-tetrahydro-3-methyl-6-(4-morpholinyl)-7,10-methano(1,2,4)triazolo[3,4-a]phthalazine] | 76 | 86 | 74 | 61 | – | –
CC1CCCN1c1nn2cnnc2c2c1CCCC2 (stereo not shown) [Example 30, 6-(2-methylpyrrolidinyl)-7,8-tetramethylene(1,2,4)triazolo[4,3-b]pyridazine] | – | – | – | – | 1.6 | –
CC(C)c1nnc2c3c(c(N4CCCC4)nn12)CCCC3 [Example 56] | – | – | – | – | ~5.1 | –
Cc1c(N2CCOCC2)nn2cnnc2c1C [R7 Methyl; R3 H; R8 CH3; R6 Morpholino, 6-Morpholino-7,8-dimethyl-s-triazolo[4,3-b]pyridazine] | 46 | 272 | 272 | – | – | TD50 ([3]; in vivo): 272 mg/kg
Cc1nnc2c3c(c(N4CCCC4)nn12)C1CCC3CC1 [Example 18] | 55 | 141 | 141 | – | – | TD50 ([3]; in vivo): 141 mg/kg
Cc1c(N2CCCCC2)nn2c(C)nnc2c1C [R7 Methyl; R3 CH3; R8 CH3; R6 Piperidino, 6-Piperidino-3,7,8-trimethyl-s-triazolo[4,3-b]pyridazine] | 30 | 141 | 141 | – | – | TD50 ([3]; in vivo): 141 mg/kg
c1nnc2c3c(c(N4CCCCC4)nn12)C1CCC3C1 (stereo not shown) [Example 8] | 84 | 108 | 98 | 90 | – | –
c1nnc2c3c(c(N4CCCC4)nn12)C1CCC3CC1 [Example 15] | 66 | 136 | 117 | 117 | – | –
c1nnc2c3c(c(N4CCCC4)nn12)C1CCC3C1 (stereo not shown) [Example 7] | 87 | 136 | 100 | 93 | – | –
CN(C)c1nn2cnnc2c2c1CCCC2 [Example 32] | – | – | – | – | 2.5 | –
CN1CCN(c2nn3cnnc3c3c2C2CCC3C2)CC1 (stereo not shown) [Example 5, 7,8,9,10-tetrahydro-6-[4-methyl-1-piperazinyl)-7,10-methano(1,2,4)triazolo[3,4-a]phthalazine] | 92 | 175 | 147 | 147 | – | –
CCc1nnc2c3c(c(N4CCCN(C)CC4)nn12)CCCC3 [Example 46] | – | – | – | – | – | ED50 (histamine aerosol exposure) ([4]; 120 min): < 5 mg/kg i.p.
Cc1nnc2c3c(c(N4CCN(C)CC4)nn12)C1CCC3C1 (stereo not shown) [Example 13] | 97 | 147 | 147 | – | – | TD50 ([3]; in vivo): 147 mg/kg
Cc1nnc2c3c(c(N(C)C)nn12)CCCC3 [Example 39] | – | – | – | – | 2.2 | –
O=C1C[C@@H]2OCC=C3CN4CC[C@]56c7ccccc7N1[C@H]5[C@H]2[C@H]3C[C@H]46 [strychnine] | – | – | – | – | – | change in toxicity with sound [5]: no significant change in toxicity with sound
c1nnc2c3c(c(N4CCOCC4)nn12)CCCC3 [6-Morpholino-7,8-tetramethylene-s-triazolo[4,3-b]pyridazine] | – | – | – | – | – | percent blockade of histamine [1]: 75%; percent of aminophylline activity [1]: 113%; selectivity ratio ([3]; in vivo): 3.8
Cc1nnc2c3c(c(N4CCCC4)nn12)C1CCC3C1 (stereo not shown) [Example 10] | 95 | 85 | 85 | 85 | – | –
Cc1c(N2CCCC2)nn2cnnc2c1C [7,8-Dimethyl-6-pyrrolidino-s-triazolo[4,3-b]pyridazine] | 62 | 277 | 277 | – | – | percent blockade of histamine [1]: 65%; percent of aminophylline activity [1]: 67%; TD50 ([3]; in vivo): 277 mg/kg

SMILES | Histamine Blockade [1] | LD50 at 0.5 h [2] [mg/kg] | LD50 ([3]; in vivo) [mg/kg] | TD50 [3] [mg/kg] | ED50 [4] [mg/kg] | further results
CCc1nnc2c3c(c(N4CCN(C)CC4)nn12)CCCC3 [Example 53] | – | – | – | – | 36.4 | –
c1nnc2c3c(c(N4CCCCCC4)nn12)CCCC3 [Example 29, 6-(hexahydro-1H-azepin-1-yl)-7,8-tetramethylene(1,2,4)triazolo[4,3-b]pyridazine] | – | – | – | – | 5 | –
CCc1nnc2c3c(c(N4CCCCCC4)nn12)CCCC3 [Example 47] | – | – | – | – | ~4.95 | –
CN1CCN(c2nn3cnnc3c3c2C2CCC3CC2)CC1 [Example 21] | 82 | 147 | 147 | 113 | – | –
Cc1c(N2CCCCC2)nn2cnnc2c1C [R7 Methyl; R3 H; R8 CH3; R6 Piperidino, 6-Piperidino-7,8-dimethyl-s-triazolo[4,3-b]pyridazine] | 45 | 404 | 404 | – | – | TD50 ([3]; in vivo): 404 mg/kg
Cc1nnc2c3c(c(N4CCN(C)CC4)nn12)C1CCC3CC1 [Example 23] | 90 | 147 | 147 | – | – | TD50 ([3]; in vivo): 147 mg/kg
CC1CCN(c2nn3cnnc3c3c2CCCC3)CC1 [Example 34] | – | – | – | – | 1.3 | –
Cc1nnc2c3c(c(N4CCCN(C)CC4)nn12)CCCC3 [44 (dihydrochloride)] | – | – | – | – | 23.8 | –
Cn1c(=O)c2[nH]cnc2n(C)c1=O [Aminophylline, reference compound] | – | – | – | – | – | inhibition in vivo at 10 mg/kg ([1]; Cavia porcellus, iv, read-out: Histamine Blockade): 37%
CNc1nn2cnnc2c2c1CCCC2 [Example 31] | – | – | – | – | 4 | –
Cc1cc2nncn2nc1N1CCN(C)CC1 [Example 4, 7-Methyl-6-N-methylpiperazino-s-triazolo[4,3-b]pyridazine] | 39 | 272 | 140 | – | – | percent blockade of histamine [1]: 39%; TD50 ([3]; in vivo): 116 mg/kg
c1nnc2c3c(c(N4CCOCC4)nn12)C1CCC3CC1 [Example 17] | 58 | 118 | 85 | 62 | – | –
Cc1nnc2c3c(c(N4CCOCC4)nn12)CCCC3 [6-Morpholino-3-methyl-7,8-tetramethylene-s-triazolo[4,3-b]pyridazine] | 61 | 149 | 126 | 90 | – | selectivity ratio ([3]; in vivo): ~1.18
CC1CCCN(c2nn3cnnc3c3c2CCCC3)C1 (stereo not shown) [Example 33] | – | – | – | – | 1.8 | –
Cc1cc2nnc(C)n2nc1N1CCCCC1 [3,7-dimethyl-6-piperidino-s-triazolo[4,3-b]pyridazine] | 48 | 327 | 327 | 260 | – | percent blockade of histamine [1]: 48%
CCc1nnc2c3c(c(N4CCCC4)nn12)CCCC3 [Example 51] | – | – | – | – | < 2.5 | –
Cc1cc2nncn2nc1N1CCOCC1 [7-Methyl-6-morpholino-s-triazolo[4,3-b]pyridazine] | – | 327 | 280 | 45 | – | bronchodilator activity ([1]; in words): desirable bronchodilator activity
Cc1nnc2c3c(c(N4CCCCC4)nn12)CCCC3 [6-Piperidino-3-methyl-7,8-tetramethylene-s-triazolo[4,3-b]pyridazine] | 38 | 139 | 139 | 125 | – | –
CCc1nnc2c3c(c(N4CCCN(C)CC4)nn12)CCCC3 [Example 45] | – | – | – | – | 5 | –
CNc1nn2c(C)nnc2c2c1CCCC2 [Example 38] | – | – | – | – | 2.1 | –
CC(C)c1nnc2c3c(c(N4CCCC4C)nn12)CCCC3 (stereo not shown) [Example 55] | – | – | – | – | ~7.9 | –
